The text below walks through data of ChEMBL document CHEMBL5512634, “Sulfone-based human liver pyruvate kinase inhibitors - Design, synthesis and in vitro bioactivity” (Eur J Med Chem, 2024).

The structures appear in SMILES notation. Calls of active or inactive are those of the source. The calls are words filed in the database; no cut-off is given here.

One series concerns HepG2. As to the kind of experiment: Cytotoxicity against PKM2 knock out human HepG2 cells at 1 to 10 uM measured for 24 to 72 hrs. Particulars: hepg2, 10 µM, dose lower 1 µM, time lower 24 hrs, dose upper 10 µM, time upper 72 hrs. The series is classed as toxicity, cell-based.
Series [1] has as its target T1, Pyruvate kinase PKLR (Homo sapiens, UniProt P30613). Kind of series: Inhibition of PKR (unknown origin).
Target sequence in this assay (P30613 whole entry, looked up, the tested form may be a part): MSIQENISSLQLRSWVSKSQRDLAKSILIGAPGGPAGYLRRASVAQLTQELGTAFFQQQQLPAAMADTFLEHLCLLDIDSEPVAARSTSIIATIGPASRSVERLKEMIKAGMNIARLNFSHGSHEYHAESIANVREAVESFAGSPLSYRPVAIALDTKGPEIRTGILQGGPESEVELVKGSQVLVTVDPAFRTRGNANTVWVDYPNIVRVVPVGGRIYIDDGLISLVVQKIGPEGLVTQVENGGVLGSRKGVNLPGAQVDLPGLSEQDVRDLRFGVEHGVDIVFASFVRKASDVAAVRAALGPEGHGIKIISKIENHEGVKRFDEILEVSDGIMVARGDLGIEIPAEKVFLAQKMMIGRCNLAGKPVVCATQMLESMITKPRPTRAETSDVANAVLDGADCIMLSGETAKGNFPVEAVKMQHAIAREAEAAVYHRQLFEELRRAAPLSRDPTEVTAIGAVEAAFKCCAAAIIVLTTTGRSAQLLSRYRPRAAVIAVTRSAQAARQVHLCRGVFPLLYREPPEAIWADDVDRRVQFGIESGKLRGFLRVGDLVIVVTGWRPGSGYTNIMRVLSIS
Series [2] has as its target T1, Pyruvate kinase PKLR. As to the kind of experiment: Inhibition of full length N-terminal His-tagged human PKL (2 to 543 residues) expressed in Escherichia coli by kinase Glo luminescence based plate reader assay. (Kinase-Glo reads ATP consumption through a luciferase reaction.)
Target sequence in this assay (P30613 whole entry, the tested form may be a part): as the sequence (P30613 whole entry, looked up, the tested form may be a part) above
Series [3] deals with T1, Pyruvate kinase PKLR. Kind of series: Inhibition of full length N-terminal His-tagged human PKL (2 to 543 residues) expressed in Escherichia coli at 10 uM by kinase Glo luminescence based plate reader assay relative to control.
Target sequence in this assay (P30613 whole entry, looked up, the tested form may be a part): as above

Turning to `O=S1(=O)Oc2c(ccc(O)c2O)-c2cc(O)c(O)cc21`, in the series on HepG2, the Activity entry is “Non-Toxic”.
Regarding `O=S1(=O)Oc2cc(O)c(O)c(O)c2-c2cc(O)c(O)cc21`, the IC50 (usually the midpoint of a concentration-inhibition curve) at Pyruvate kinase PKLR [1] is 180 nM; on Pyruvate kinase PKLR [2], 70 nM.
Turning to `O=S1(=O)Oc2c(ccc(O)c2O)-c2cc(O)ccc21`, the inhibition result at Pyruvate kinase PKLR [3] is “Active”.
